Measured values taken from US20070082856A1, “Combination therapy comprising the use of et-743 and doxorubicin for treating cancer” (Pharma Mar, S.A.U., priority 2003, published 2007).

Key:
[1] = tested on: untreated metastatic soft tissue sarcomas (STS) and advanced pre-treated anthracyline-naïve breast cancer (ABC); experiment: Phase I clinical trial (Example 1): antitumor activity of ET-743 in combination with doxorubicin; assay type: in vivo, human
Protocol: In this multicenter dose and LTS finding trial, patients were assigned consecutively to start either with sequence A (ET-743 before Doxo) or with the reverse sequence (B) at the following dose levels every 21 days: […] Oral steroids premedication for ET-743 was given 24 h before and for 48 h following the day of treatment. […] Patients continued treatment until progressive disease (PD) or intolerance, and were […] 2 cycles for activity. In this study, 22 patients were enrolled and evaluable. The patients were required to have normal liver, renal, cardiac and haematologic functions and good performance status for entry into the study. Enrolment was restricted to breast cancer and soft tissue sarcoma.

[2] = Phase I clinical trial (Example 1): pharmacokinetics of both drugs for the 2 sequences; assay type: in vivo, human; conditions: for influence of order of administration on pharmacokinetics: ET-743 and Doxo, sequence A versus B; for comparison of the plasma disposition in patients receiving both sequences: ET-743 and doxorubicin, sequences A and B, cycle 1 and cycle 2
Protocol: Pharmacokinetic [PK] of both drugs was determined for the 2 sequences at cycle 1 and cycle 2, when patients received the drugs in the reverse order of administration. Alternating sequence was discontinued at observation of dose limiting toxicity [DLT]: observation of grade 4 hematological toxicity for more than 3 days at the entry level. Both drugs were administered on day 1, with a 1 h interval between the 2 drugs (ET-743, 3-hr infusion i.v. and Doxo, 1-hr infusion i.v push with steroids & 5-HT3 antagonists as antiemetic prophylaxis). Oral steroids premedication for ET-743 was given 24 h before and for 48 h following the day of treatment. Doxo was administered at the fixed dose of 60 mg/m^2, while ET-743 was started at 600 μg/m^2 and escalated thereafter in subsequent cohorts of at least 3 new cases. Patients continued treatment until progressive disease (PD) or intolerance, and were restaged every 2 cycles for activity.

[3] = human, in vivo
[4] = tested on: human tumor xenografts, including melanoma and ovarian and breast carcinoma; conditions: ET-743 alone; human tumor xenografts grown in athymic mice; cited from earlier work
[5] = tested on: sarcoma and breast and ovarian carcinoma; conditions: ET-743 alone; phase I intravenous infusion schedules; cited from earlier work
[6] = ET-743 with doxorubicin; tests on animal models; WO 0236135; cited from earlier work
[7] = tested on: sarcoma cell line; conditions: ET-743 and doxorubicin, Meco et al. 2003; cited from earlier work
[8] = tested on: transplanted human sarcomas; conditions: ET-743 and doxorubicin; mice with transplanted human sarcomas; Meco et al. 2003; cited from earlier work
[9] = Phase I clinical trial (Example 2): safety profile and DLT of ET-743 days 1 and 8 with doxorubicin day 1; conditions: fixed Doxo dose day 1 with ET-743 700 μg/m^2 days 1 and 8, every 21 days

| SMILES | antitumor activity ([1]; 600-700 μg/m^2 of ET-743 in combination with Doxo) | patients with confirmed partial response (PR) ([1]; all ET-743 dose levels + Doxo 60 mg/m^2, 22 evaluable patients) | antitumor activity of the combination ([1]; combination of ET-743 and doxorubicin, phase I clinical trials) | influence of order of administration on pharmacokinetics [2] | comparison of the plasma disposition in patients receiving both sequences [2] | tolerability of the combination [3] | antineoplastic activity [4] | responses in patients [5] | effect of the combination [6] | effect of the combination [7] | effect of the combination [8] | MTD, Doxo part [9] |
| --- | --- | --- | --- | --- | --- | --- | --- | --- | --- | --- | --- | --- |
| COc1cc2c(cc1O)CCN[C@]21CS[C@@H]2c3c(OC(C)=O)c(C)c4c(c3[C@H](COC1=O)N1[C@@H]2[C@H]2c3c(cc(C)c(OC)c3O)C[C@@H]([C@@H]1O)N2C)OCO4 [ET-743, ecteinascidin 743] | Antitumor activity was observed | 5 pts | evidence of antitumor activity | did not influence the pharmacokinetics | did not reveal any significant pharmacokinetic interaction | tolerable and feasible | potent antineoplastic activity | Promising responses | synergistic effect | additive effect | additive effect |  |
| COc1cccc2c1C(=O)c1c(O)c3c(c(O)c1C2=O)C[C@@](O)(C(=O)CO)C[C@@H]3O[C@H]1C[C@H](N)[C@H](O)[C@H](C)O1 [doxorubicin] |  |  |  | did not influence the pharmacokinetics | did not reveal any significant pharmacokinetic interaction |  |  |  |  |  |  | 50 mg/m^2 |
